The target in this experiment is Peptidyl-prolyl cis-trans isomerase FKBP1A (Homo sapiens, UniProt P62942). The experiment in a line: Binding affinity to FK506 binding protein 12 was determined.
Chain of Peptidyl-prolyl cis-trans isomerase FKBP1A (P62942 whole entry): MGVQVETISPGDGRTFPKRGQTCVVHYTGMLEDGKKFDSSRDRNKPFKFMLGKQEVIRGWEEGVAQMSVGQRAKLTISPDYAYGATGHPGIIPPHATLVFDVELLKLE

`C=CC[C@@H]1/C=C(\C)C[C@H](C)C[C@H](OC)[C@@H](O)[C@@H](OC)C[C@@H](C)CC(=O)C(=O)N2CCCC[C@H]2C(=O)O[C@H](/C(C)=C/[C@@H]2CC[C@@H](O)[C@H](OC)C2)[C@H](C)[C@@H](O)CC1=O` showed a Kd of 0.32 µM.

Consider `CCC(C)C1C(=O)CC[C@@H](C)[C@@H](CCc2cccnc2)OC(=O)[C@@H]2CCCN(C2)C(=O)C(=O)CCSCC[C@@H](OC)C[C@@H](C)CC(=O)N1C` (stereo not given in full), for which the Kd is 0.09 µM.

`C=CC[C@@H]1/C=C(\C)C[C@H](C)C[C@H](OC)[C@@H](O)[C@@H](OC)C[C@@H](C)c2ncoc2C(=O)N2CCCC[C@H]2C(=O)O[C@H](/C(C)=C/[C@@H]2CC[C@@H](O)[C@H](OC)C2)[C@H](C)C(O)CC1=O` (stereo not given in full) had a Kd of 0.344 µM.

Compound `CCCC1C(=O)CC[C@@H](C)[C@@H](CCc2cccnc2)OC(=O)[C@@H]2CCCN(C2)C(=O)C(=O)CSCC[C@@H](OC)C[C@@H](C)CC(=O)N1C` (stereo not given in full) showed a Kd of 0.644 µM. Against the preceding compound, the Kd is about 1.9-fold higher.

`CCCC1C(=O)CC[C@@H](C)[C@@H](CCc2cccnc2)OC(=O)[C@@H]2CCCN(C2)C(=O)C(O)CC[S+]([O-])CC[C@@H](OC)C[C@@H](C)CC(=O)N1C` (stereo not given in full) yielded a Kd greater than 1 µM.

In general, Kd refers to a measure of binding affinity in units of concentration. Lower therefore signals tighter binding.

The values above are taken from ChEMBL document CHEMBL1128043, “Synthesis of FK506-Cyclosporin hybrid macrocycles” (Bioorg Med Chem Lett, 1995).
